Each block holds one molecule with its values, some of them ahead of it.
Legend:
AmtB-GlnK complex = molecular target: T1, AmtB-GlnK complex (Escherichia coli, UniProt P69681); test: native MS, mole fraction of lipid-bound states; assay type: binding; conditions: ADP present, 200 mM ammonium acetate pH 7.4
T1 construct: with Nitrogen regulatory protein GlnK
T1 sequence (P69681 23-428): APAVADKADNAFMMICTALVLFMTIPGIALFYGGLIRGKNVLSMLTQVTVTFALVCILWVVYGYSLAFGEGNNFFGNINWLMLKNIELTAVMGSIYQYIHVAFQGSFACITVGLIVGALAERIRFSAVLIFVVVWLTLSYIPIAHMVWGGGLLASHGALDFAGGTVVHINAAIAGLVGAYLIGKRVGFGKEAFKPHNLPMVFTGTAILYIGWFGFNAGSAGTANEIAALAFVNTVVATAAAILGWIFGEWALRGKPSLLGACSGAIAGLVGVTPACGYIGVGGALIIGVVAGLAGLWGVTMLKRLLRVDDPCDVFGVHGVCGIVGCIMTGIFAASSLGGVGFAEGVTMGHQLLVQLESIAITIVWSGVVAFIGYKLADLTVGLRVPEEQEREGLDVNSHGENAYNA
T1 sequence (P0AC55 1-112 partner): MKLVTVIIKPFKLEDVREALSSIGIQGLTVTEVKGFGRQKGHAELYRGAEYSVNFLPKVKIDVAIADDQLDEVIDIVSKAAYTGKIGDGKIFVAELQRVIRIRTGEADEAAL

AqpZ (AqpZ-STII) = molecular target: T2, AqpZ (AqpZ-STII) (Escherichia coli, UniProt P60844); test: native MS lipid titration, sequential binding model; conditions: LDAO; first lipid bound; range over conditions; 200 mM ammonium acetate pH 7.4, room temperature; read-out: Kd1
T2 construct: C-terminal Strep-tag II
T2 sequence (P60844 1-231): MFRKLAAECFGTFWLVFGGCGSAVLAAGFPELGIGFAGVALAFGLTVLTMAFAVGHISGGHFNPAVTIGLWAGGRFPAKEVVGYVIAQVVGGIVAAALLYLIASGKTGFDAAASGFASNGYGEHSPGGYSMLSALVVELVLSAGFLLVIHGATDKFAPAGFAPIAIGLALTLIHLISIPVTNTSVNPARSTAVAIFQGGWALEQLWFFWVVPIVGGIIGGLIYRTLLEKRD

[1] = molecular target: T3, Aquaporin Z from Escherichia coli containing a C-terminal Strep-tag II (Escherichia coli), P60844; test: native MS; 1 uM AqpZ in 200 mM ammonium acetate pH 7.4 with 2x CMC detergent (C8E4 or LDAO alone; DM, OGNG, NG, C8E4 or LDAO with 5 mM SPM or 60 mM TMAO); nanoESI, Exactive Plus EMR Orbitrap, room temperature; conditions: remark: other sources report otherwise
T3 chain: T2 sequence (P60844 1-231)

Molecule: CCCCCCCC/C=C\CCCCCCCC(=O)O[C@H](COC(=O)CCCCCCCCCCCCCCC)COP(=O)(O)O [POPA]
native MS, mole fraction of lipid-bound states (AmtB-GlnK complex; several detergents): POPA and POPS binding to AmtB-GlnK was broadly comparable for the different detergents

Molecule: CCCCCCCC/C=C\CCCCCCCC(=O)O[C@H](COC(=O)CCCCCCCCCCCCCCC)COP(=O)(O)OCC(O)CO (some centres unmarked) [POPG]
native MS, mole fraction of lipid-bound states (AmtB-GlnK complex; several detergents): AmtB-GlnK in different detergent environments showed comparable binding of POPG

Kd (AqpZ (AqpZ-STII)): 300 to 1400 nM
Molecule: CCCCCCCC/C=C\CCCCCCCC(=O)OC[C@H](COP(=O)(O)OCC(O)COP(=O)(O)OC[C@@H](COC(=O)CCCCCCC/C=C\CCCCCCCC)OC(=O)CCCCCCC/C=C\CCCCCCCC)OC(=O)CCCCCCC/C=C\CCCCCCCC (some centres unmarked) [TOCDL]
native MS, mole fraction of lipid-bound states (AmtB-GlnK complex; 2 μM complex, 25 μM lipid, C8E4, LDAO, DM or NG): binding of TOCDL was more prominent in LDAO and DM

stoichiometry N [1]: 4
B1: Aquaporin Z from Escherichia coli containing a C-terminal Strep-tag II, P60844 1-231 (natural protein)
chain: T2 sequence (P60844 1-231)

From PMC11503522, “Native Mass Spectrometry of Membrane Protein–Lipid Interactions in Different Detergent Environments” (Analytical Chemistry, 2024)
